Holding throughout (assay): growth of human tumour cells (NCI), 48 h
Assay [1] concerns EKVX NSCLC.
Assay [2] concerns SN12C renal.
Assay [3] deals with HL-60(TB) leukemia.
In assay [4] the test system is OVCAR-4 ovarian.
Assay [5] concerns HOP-92 NSCLC.
Assay [6] deals with SR leukemia.
Assay [7] concerns NCI-H226 lung.
The subject of assay [8] is HCT-15 colon.
Assay [9] concerns U251 CNS.
For assay [10], the system named is NCI/ADR-RES ovarian.

Values joined by “and” are separate entries in the source; they are usually repeats but may differ in a detail not shown here. Equal values may be shown once.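 Cultured in 96-well plates, cells were exposed to test compound for 48 hours across five concentrations. Abbreviation: GI50, concentration required for 50% inhibition of growth. TGI denotes the concentration required for complete inhibition of growth.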

As to `CN(C)CCNc1nc2ccccc2c2c(=O)c3ccccc3sc12`, the GI50 in assay [1] was 1.66 µM; in assay [2], 2.13 µM; in [3], 1.82 µM; in [4], 2.85 µM; in [5], 1.68 µM; in assay [6], 1.66 µM. The GI50 in assay [7] is 1.77 µM; in assay [8] it was 1.97 µM; in assay [9], 2.25 µM; in [10] it was 1.96 µM. In addition, the TGI in assay [1] is 4.98 µM; in [2], 8.85 µM; in assay [3], 4.21 µM; in assay [4] it was 11.1 µM; in [5], 6.73 µM; in assay [6] it was 4.69 µM. The TGI in assay [7] worked out at 5.82 µM; in [8] it was 4.85 µM; in assay [9] it was 6.01 µM; in [10] it was 6.43 µM.
As to `N#Cc1c2c(c(-c3cccs3)n(C3OC(CO)C(O)C(O)C3O)c1=S)CCc1ccccc1-2` (centres undefined), the TGI was > 100 µM in [1]; > 100 µM in assay [2]; > 84.7 µM in assay [3]; > 100 µM in assay [4]; > 88.8 µM in assay [5]; > 100 µM in [6]. Moreover, the TGI in assay [7], in [8], in assay [9] and in [10] was > 100 µM in each case. The GI50 in [5] is 3.35 µM; in [10], 13.4 µM and 39.5 µM.
As for `COc1c(N2CCN(Cn3c(O)c(N=NC(=O)c4ccncc4)c4cc(F)ccc43)C(C)C2)c(F)cc2c(=O)c(C(=O)O)cn(C3CC3)c12` (centres undefined), the GI50 in assay [1] was 35.2 µM; in assay [2], 42.8 µM; in assay [3], > 50 µM; in assay [4], > 50 µM; in assay [5] it was 22.7 µM; in assay [6], 16.3 µM. The GI50 is 25.4 µM in [7], 17 µM in assay [8], 14.7 µM in [9] and 29 µM in [10]. Also, the TGI in [1], in [2], in assay [3], in [4], in assay [5] and in assay [6] was > 50 µM each time. For the same molecule, the TGI in [7], in assay [8], in assay [9] and in assay [10] was > 50 µM throughout.
As for `O=[N+]([O-])c1cc(F)c2cccnc2c1O`, the GI50 in assay [1] was 22.9 µM; in [2], 22.1 µM; in [3], 2.48 µM; in assay [4] it was 6.63 µM; in assay [5], 2.84 µM; in assay [6], 1.96 µM. The GI50 in [7] is 30.5 µM; in [8] it was 6.73 µM; in [9] it was 4.9 µM; in [10], 3.61 µM. Moreover, the TGI is > 100 µM in assay [1]; > 100 µM in [2]; 8.12 µM in assay [3]; 65.5 µM in assay [4]; 9.01 µM in assay [5]; 6.96 µM in assay [6]. Further, the TGI in assay [7] is > 100 µM; in assay [8] it was > 100 µM; in [9], 90.3 µM; in assay [10], 45.3 µM.
As to `O=C(Nc1ccc(I)cc1F)c1cc(I)ccc1O`, the GI50 was 0.737 µM in assay [1]; 0.511 µM in assay [2]; 0.517 µM in assay [3]; 0.798 µM in assay [4]; 0.179 µM in assay [5]; 1.38 µM in assay [6]. The GI50 in assay [7] was 0.739 µM; in assay [8] it was 0.452 µM; in assay [9], 0.661 µM; in assay [10] it was 0.791 µM. Moreover, the TGI in assay [1] was 7.17 µM; in assay [3] it was 1.66 µM; in [4] it was > 100 µM; in [5], 0.777 µM; in assay [6], > 100 µM; in assay [7], 6.11 µM. The TGI was 19.7 µM in [8], > 100 µM in assay [9] and 3.85 µM in assay [10].
Consider `CCCn1c(N)c(C(=O)CNc2ccc(I)cc2)c(=O)[nH]c1=O`, for which the GI50 in assay [1] was > 64.3 µM; in [2], 29.2 µM; in assay [3], 10.5 µM; in assay [4] it was > 100 µM; in assay [5], 7.86 µM; in [6] it was 0.378 µM. For the same molecule, the GI50 in [7] was 12.9 µM; in assay [8] it was 0.264 µM; in assay [9] it was 0.761 µM; in assay [10], > 25.3 µM. The TGI is > 100 µM in assay [1]; > 100 µM in assay [2]; > 100 µM in [3]; > 100 µM in [4]; > 24.3 µM in [5]; 28.3 µM in assay [6]. Besides, the TGI in assay [7] was > 100 µM; in [8], > 100 µM; in assay [9], > 48.9 µM; in assay [10], > 100 µM.
Regarding `COC(=O)[C@]12CC[C@@H](C)[C@H](C)[C@@H]1C1=CC[C@@H]3[C@@]4(C)CC(=O)[C@H](OC(=O)c5ccco5)[C@@]5(C)COC(=C45)C[C@@]3(C)[C@]1(C)CC2`, the GI50 in assay [1] was 2.09 µM; in [3] it was 0.46 µM; in assay [4], 2.12 µM; in [5], 14.9 µM; in [6], 0.371 µM; in [7], 83.1 µM. Moreover, the figures for the GI50 in assay [8], in [9] and in [10] were 0.54 µM, 0.703 µM and 6.37 µM, respectively. Also, the TGI in assay [1], in [3], in assay [4], in assay [5], in [6] and in [7] was > 100 µM each time. The TGI in [8], in assay [9] and in assay [10] was > 100 µM each time.
